Laboratory results from PubChem BioAssay (NCI).
Several values for one entry are separate records, joined by “and”; a condition that tells them apart may be missing. Equal values may be shown once.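 The compound was tested at five concentrations on cells cultured in 96-well plates, with a 48-hour exposure period. At the GI50, growth is halved. TGI denotes the concentration required for complete inhibition of growth.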

Columns and labels:
Assay in all cases: NCI-60 cell line screen, 48 h; in the data active means GI50 below about 0.43 µM; inactive means the rest
OVCAR-4 ovarian = system: OVCAR-4 ovarian
DU-145 prostate = system: DU-145 prostate
A549 NSCLC = system: A549 NSCLC
NCI-H226 lung = system: NCI-H226 lung
A498 renal = system: A498 renal
SN12C renal = system: SN12C renal
KM12 colon = system: KM12 colon
786-0 renal = system: 786-0 renal
NCI-H522 lung = system: NCI-H522 lung
K-562 leukemia = system: K-562 leukemia
UO-31 renal = system: UO-31 renal
SK-OV-3 ovarian = system: SK-OV-3 ovarian
CCRF-CEM leukemia = system: CCRF-CEM leukemia
KM20L2 colon = system: KM20L2 colon
HCT-15 colon = system: HCT-15 colon
LOX IMVI melanoma = system: LOX IMVI melanoma
PC-3 prostate = system: PC-3 prostate
EKVX NSCLC = system: EKVX NSCLC
RXF-631 renal = system: RXF-631 renal
SF-268 CNS = system: SF-268 CNS
MALME-3M melanoma = system: MALME-3M melanoma
OVCAR-3 ovarian = system: OVCAR-3 ovarian
SR leukemia = system: SR leukemia
U251 CNS = system: U251 CNS
SNB-78 CNS = system: SNB-78 CNS
HS 578T breast = system: HS 578T breast
SF-539 CNS = system: SF-539 CNS
BT-549 breast = system: BT-549 breast
SK-MEL-5 melanoma = system: SK-MEL-5 melanoma
SF-295 CNS = system: SF-295 CNS
SW-620 colon = system: SW-620 colon
UACC-257 melanoma = system: UACC-257 melanoma
NCI-H23 lung = system: NCI-H23 lung
HCC-2998 colon = system: HCC-2998 colon
OVCAR-8 ovarian = system: OVCAR-8 ovarian
T-47D breast = system: T-47D breast
HOP-18 NSCLC = system: HOP-18 NSCLC
XF 498 CNS = system: XF 498 CNS
HCT-116 colon = system: HCT-116 colon
SNB-19 CNS = system: SNB-19 CNS
NCI/ADR-RES ovarian = system: NCI/ADR-RES ovarian
CAKI-1 renal = system: CAKI-1 renal
LXFL 529 NSCLC = system: LXFL 529 NSCLC
RXF 393 renal = system: RXF 393 renal
SNB-75 CNS = system: SNB-75 CNS
SK-MEL-28 melanoma = system: SK-MEL-28 melanoma
MDA-N = system: MDA-N
RPMI-8226 leukemia = system: RPMI-8226 leukemia
OVCAR-5 ovarian = system: OVCAR-5 ovarian
M14 melanoma = system: M14 melanoma
MDA-MB-231 breast = system: MDA-MB-231 breast
ACHN renal = system: ACHN renal
DMS 273 small cell lung = system: DMS 273 small cell lung
HL-60(TB) leukemia = system: HL-60(TB) leukemia
COLO 205 colon = system: COLO 205 colon
HOP-92 NSCLC = system: HOP-92 NSCLC
MCF7 breast = system: MCF7 breast
UACC-62 melanoma = system: UACC-62 melanoma
IGROV1 ovarian = system: IGROV1 ovarian
HOP-62 NSCLC = system: HOP-62 NSCLC
HT29 colon = system: HT29 colon
NCI-H460 lung = system: NCI-H460 lung
TK-10 renal = system: TK-10 renal
MDA-MB-435 = system: MDA-MB-435
MOLT-4 leukemia = system: MOLT-4 leukemia
SK-MEL-2 melanoma = system: SK-MEL-2 melanoma

NCCCNCCS
> 100 µM and 72.3 µM: TGI (CCRF-CEM leukemia)
inactive: GI50 (786-0 renal) > 100 µM and 49.5 µM | GI50 (CCRF-CEM leukemia) > 100 µM and 21.8 µM | GI50 (SR leukemia) > 100 µM and 37 µM | GI50 (SW-620 colon) > 100 µM and 46.3 µM | GI50 (RPMI-8226 leukemia) > 100 µM and 20.6 µM | GI50 (COLO 205 colon) > 100 µM and 46.9 µM
> 100 µM: TGI (OVCAR-4 ovarian) | TGI (DU-145 prostate) | TGI (A549 NSCLC) | TGI (NCI-H226 lung) | TGI (A498 renal) | TGI (SN12C renal) | TGI (KM12 colon) | TGI (786-0 renal) | TGI (NCI-H522 lung) | TGI (K-562 leukemia) | TGI (UO-31 renal) | TGI (SK-OV-3 ovarian) | TGI (KM20L2 colon) | TGI (HCT-15 colon) | TGI (LOX IMVI melanoma) | TGI (PC-3 prostate) | TGI (EKVX NSCLC) | TGI (RXF-631 renal) | TGI (SF-268 CNS) | TGI (MALME-3M melanoma) | TGI (OVCAR-3 ovarian) | TGI (SR leukemia) | TGI (U251 CNS) | TGI (SNB-78 CNS) | TGI (HS 578T breast) | TGI (SF-539 CNS) | TGI (BT-549 breast) | TGI (SK-MEL-5 melanoma) | TGI (SF-295 CNS) | TGI (SW-620 colon) | TGI (UACC-257 melanoma) | TGI (NCI-H23 lung) | TGI (HCC-2998 colon) | TGI (OVCAR-8 ovarian) | TGI (T-47D breast) | TGI (HOP-18 NSCLC) | TGI (XF 498 CNS) | TGI (HCT-116 colon) | TGI (SNB-19 CNS) | TGI (NCI/ADR-RES ovarian) | TGI (CAKI-1 renal) | TGI (LXFL 529 NSCLC) | TGI (RXF 393 renal) | TGI (SNB-75 CNS) | TGI (SK-MEL-28 melanoma) | TGI (MDA-N) | TGI (RPMI-8226 leukemia) | TGI (OVCAR-5 ovarian) | TGI (M14 melanoma) | TGI (MDA-MB-231 breast) | TGI (ACHN renal) | TGI (DMS 273 small cell lung) | TGI (HL-60(TB) leukemia) | TGI (COLO 205 colon) | TGI (HOP-92 NSCLC) | TGI (MCF7 breast) | TGI (UACC-62 melanoma) | TGI (IGROV1 ovarian) | TGI (HOP-62 NSCLC) | TGI (HT29 colon) | TGI (NCI-H460 lung) | TGI (TK-10 renal) | TGI (MDA-MB-435) | TGI (MOLT-4 leukemia) | TGI (SK-MEL-2 melanoma)
